# Reference: publication PMC12736120, “First-in-Human Phase I Clinical Trial of SLC-391, a Novel and Selective AXL Inhibitor, in Patients with Advanced Solid Tumours” (Pharmaceuticals, 2025)
# Like-named read-outs stand apart in the source and are kept apart here.
# Test: Plasma pharmacokinetics, QD and BID cohorts (non-compartmental)
# Type: in vivo, human
# Settings: for Cmin, Mean / Cmin, Median / AUC / AUC(0-t) / Cmax / Tmax: plasma; for AR Factor (accumulation ratio), AUC0–12 / AR Factor (accumulation ratio), AUC0–last / AR Factor (accumulation ratio), Cmax: C1D21 vs C1D1; for AUC / AUC(0-t) / Cmax / Tmax: human, oral
# Protocol: PK parameters were calculated by standard non-compartmental methods for SLC-391. Due to the long half-life of SLC-391 compared to the dosing interval, it was not possible to calculate a number of PK parameters, including plasma half-life and rate of elimination. Accumulation was assessed from the mean accumulation ratio factor (AR factor) calculated as the repeated dose (C1D21) mean value/single dose (C1D1) mean value for the PK parameters Cmax, AUC0–12, and AUC0–last for each dose group.
# During QD dosing, blood samples for determination of SLC-391 plasma concentrations were collected predose and at 0.5, 1, 2, 3, 4, 6, 8, and 24 h after SLC-391 administration on cycle 1 day 1 (C1D1) and cycle 1 day 21 (C1D21). During BID dosing, blood samples were collected predose and at 1, 2, 3, 4, 6, 8, and 12 h after the first daily dose (before the second daily dose). Where possible, further samples were then collected at 13, 14, 22, and 24 h after the initial dose (predose C1D2). Blood samples were also collected on C1D21 (steady state) predose and at 1, 2, 3, 4, 6, 8, and 12 h after the first daily dose (before the second daily dose). Where possible, further samples were then collected at 13, 14, 22, and 24 h after the initial C1D21 dose (predose C2D1). An additional blood sample was also taken, where possible, at the end of treatment (EOT) visit.
# After collection, blood samples were centrifuged, and plasma was separated and stored at −80 °C. Plasma concentrations of SLC-391 were measured by a validated analytical method involving liquid–liquid extraction followed by high-performance liquid chromatography (HPLC)–mass/mass spectroscopy assay using a Water Quattro Premier tandem quadrupole mass spectroscopy with Waters MassLynx data acquisition and processing software. Plasma analysis was carried out by Microconstants (San Diego, CA, USA) in compliance with the US FDA GLP regulations. The calibration range of the assay was from 0.100 to 100 ng/mL. Quality control samples prepared at 4 different analyte concentrations were analysed with each batch of samples against a separately prepared calibration standard. PK parameters were collected following single (day 1) and repeat dose (day 21) administration. PK parameters were summarised with appropriate descriptive statistics where possible (e.g., mean, geometric mean, median, maximum, minimum, and coefficient of variation). Descriptive PK parameters were determined by standard non-compartmental methods based on the concentration–time data of each subject. The nominal time was used for descriptive statistics calculations, and the actual sample collection times were used in PK analyses. PK analyses were performed using validated Phoenix WinNonlin Professional 8.3 (Certara, L.P., St. Louis, MO, USA).
structure (smiles),measurement,setting,value
"Nc1ncc(-c2cnn(C3CCNCC3)c2)cc1-c1nnc(CC2CC2)o1 [SLC-391, 3-(5-[cyclopropylmethyl]-1,3,4-oxadiazol-2-yl)-5-(1-[piperidin-4-yl]-1H-pyrazol-4-yl)-pyridin-2-amine]","Cmin, Mean","25 mg, QD, C1D21",10.3 ng/mL
same,"Cmin, Median","25 mg, QD, C1D21",7.8 ng/mL
same,"Cmin, Mean","50 mg, QD, C1D21",34.9 ng/mL
same,"Cmin, Median","50 mg, QD, C1D21",34.9 ng/mL
same,Cmin,"75 mg BID, C1D21, mean, n=3, plasma",147.5 ng/mL
same,Cmin,"75 mg BID, C1D21, median, n=3, plasma",128.0 ng/mL
same,"AR Factor (accumulation ratio), AUC0–12",75 mg BID,3.2
same,"AR Factor (accumulation ratio), AUC0–last",75 mg BID,3.2
same,"AR Factor (accumulation ratio), Cmax",75 mg BID,2.4
same,"Cmin, Mean","100 mg, QD, C1D21",151.8 ng/mL
same,"Cmin, Median","100 mg, QD, C1D21",151.8 ng/mL
same,Cmin,"110 mg BID, C1D21, mean, n=3, plasma",145.6 ng/mL
same,Cmin,"110 mg BID, C1D21, median, n=3, plasma",90.2 ng/mL
same,"AR Factor (accumulation ratio), AUC0–12",110 mg BID,3.5
same,"AR Factor (accumulation ratio), AUC0–last",110 mg BID,3.7
same,"AR Factor (accumulation ratio), Cmax",110 mg BID,2.6
same,"Cmin, Mean","125 mg, QD, C1D21",33.7 ng/mL
same,"Cmin, Median","125 mg, QD, C1D21",42.0 ng/mL
same,Cmin,"150 mg BID, C1D21, mean, n=6, plasma",243.5 ng/mL
same,Cmin,"150 mg BID, C1D21, median, n=6, plasma",242.5 ng/mL
same,"AR Factor (accumulation ratio), AUC0–12",150 mg BID,4.4
same,"AR Factor (accumulation ratio), AUC0–last",150 mg BID,3.9
same,"AR Factor (accumulation ratio), Cmax",150 mg BID,2.2
same,"Cmin, Mean","150 mg, QD, C1D21",102.8 ng/mL
same,"Cmin, Median","150 mg, QD, C1D21",89.9 ng/mL
same,Cmin,"200 mg BID, C1D21, mean, n=2, plasma",471.5 ng/mL
same,Cmin,"200 mg BID, C1D21, median, n=2, plasma",471.5 ng/mL
same,"AR Factor (accumulation ratio), AUC0–12",200 mg BID,8.7
same,"AR Factor (accumulation ratio), AUC0–last",200 mg BID,8.0
same,"AR Factor (accumulation ratio), Cmax",200 mg BID,5.0
same,AUC,"25 mg, QD, C1D1, read-out: AUC0–12, Mean",177 ng·h/mL
same,AUC,"25 mg, QD, C1D1, read-out: AUC0–12, Median",211 ng·h/mL
same,AUC(0-t),"25 mg, QD, C1D1, read-out: AUC0–last, Mean",270 ng·h/mL
same,AUC(0-t),"25 mg, QD, C1D1, read-out: AUC0–last, Median",302 ng·h/mL
same,Cmax,"25 mg, QD, C1D1, read-out: Cmax, Mean",32.5 ng/mL
same,Cmax,"25 mg, QD, C1D1, read-out: Cmax, Median",39.6 ng/mL
same,Tmax,"25 mg, QD, C1D1, read-out: Tmax, Mean",2 h
same,Tmax,"25 mg, QD, C1D1, read-out: Tmax, Median",2 h
same,AUC,"25 mg, QD, C1D21, read-out: AUC0–12, Mean",286 ng·h/mL
same,AUC,"25 mg, QD, C1D21, read-out: AUC0–12, Median",232 ng·h/mL
same,AUC(0-t),"25 mg, QD, C1D21, read-out: AUC0–last, Mean",461 ng·h/mL
same,AUC(0-t),"25 mg, QD, C1D21, read-out: AUC0–last, Median",366 ng·h/mL
same,Cmax,"25 mg, QD, C1D21, read-out: Cmax, Mean",41.9 ng/mL
same,Cmax,"25 mg, QD, C1D21, read-out: Cmax, Median",41.2 ng/mL
same,Tmax,"25 mg, QD, C1D21, read-out: Tmax, Mean",2.7 h
same,Tmax,"25 mg, QD, C1D21, read-out: Tmax, Median",2.1 h
same,AUC,"50 mg, QD, C1D1, read-out: AUC0–12, Mean",382 ng·h/mL
same,AUC,"50 mg, QD, C1D1, read-out: AUC0–12, Median",413 ng·h/mL
same,AUC(0-t),"50 mg, QD, C1D1, read-out: AUC0–last, Mean",594 ng·h/mL
same,AUC(0-t),"50 mg, QD, C1D1, read-out: AUC0–last, Median",643 ng·h/mL
same,Cmax,"50 mg, QD, C1D1, read-out: Cmax, Mean",72.9 ng/mL
same,Cmax,"50 mg, QD, C1D1, read-out: Cmax, Median",65.8 ng/mL
same,Tmax,"50 mg, QD, C1D1, read-out: Tmax, Mean",2 h
same,Tmax,"50 mg, QD, C1D1, read-out: Tmax, Median",1 h
same,AUC,"50 mg, QD, C1D21, read-out: AUC0–12, Mean",706 ng·h/mL
same,AUC,"50 mg, QD, C1D21, read-out: AUC0–12, Median",706 ng·h/mL
same,AUC(0-t),"50 mg, QD, C1D21, read-out: AUC0–last, Mean",1210 ng·h/mL
same,AUC(0-t),"50 mg, QD, C1D21, read-out: AUC0–last, Median",1210 ng·h/mL
same,Cmax,"50 mg, QD, C1D21, read-out: Cmax, Mean",99.2 ng/mL
same,Cmax,"50 mg, QD, C1D21, read-out: Cmax, Median",99.2 ng/mL
same,Tmax,"50 mg, QD, C1D21, read-out: Tmax, Mean",1.5 h
same,Tmax,"50 mg, QD, C1D21, read-out: Tmax, Median",1.5 h
same,AUC,"75 mg, 75 mg BID, C1D1, mean, n=3, plasma, read-out: AUC0–12",706 ng·h/mL
same,AUC(0-t),"75 mg, 75 mg BID, C1D1, mean, n=3, plasma, read-out: AUC0–last",1390 ng·h/mL
same,Cmax,"75 mg, 75 mg BID, C1D1, mean, n=3, plasma, read-out: Cmax",114 ng/mL
same,Tmax,"75 mg, 75 mg BID, C1D1, mean, n=3, plasma, read-out: Tmax",9.4 h
same,AUC,"75 mg, 75 mg BID, C1D1, median, n=3, plasma, read-out: AUC0–12",541 ng·h/mL
same,AUC(0-t),"75 mg, 75 mg BID, C1D1, median, n=3, plasma, read-out: AUC0–last",1110 ng·h/mL
same,Cmax,"75 mg, 75 mg BID, C1D1, median, n=3, plasma, read-out: Cmax",93.4 ng/mL
same,Tmax,"75 mg, 75 mg BID, C1D1, median, n=3, plasma, read-out: Tmax",3 h
same,AUC,"75 mg, 75 mg BID, C1D21, mean, n=3, plasma, read-out: AUC0–12",2290 ng·h/mL
same,AUC(0-t),"75 mg, 75 mg BID, C1D21, mean, n=3, plasma, read-out: AUC0–last",4420 ng·h/mL
same,Cmax,"75 mg, 75 mg BID, C1D21, mean, n=3, plasma, read-out: Cmax",267 ng/mL
same,Tmax,"75 mg, 75 mg BID, C1D21, mean, n=3, plasma, read-out: Tmax",3 h
same,AUC,"75 mg, 75 mg BID, C1D21, median, n=3, plasma, read-out: AUC0–12",2290 ng·h/mL
same,AUC(0-t),"75 mg, 75 mg BID, C1D21, median, n=3, plasma, read-out: AUC0–last",4300 ng·h/mL
same,Cmax,"75 mg, 75 mg BID, C1D21, median, n=3, plasma, read-out: Cmax",331 ng/mL
same,Tmax,"75 mg, 75 mg BID, C1D21, median, n=3, plasma, read-out: Tmax",1.9 h
same,AUC,"100 mg, QD, C1D1, n 1, read-out: AUC0–12, Mean",1350 ng·h/mL
same,AUC,"100 mg, QD, C1D1, n 1, read-out: AUC0–12, Median",1350 ng·h/mL
same,AUC(0-t),"100 mg, QD, C1D1, read-out: AUC0–last, Mean",875 ng·h/mL
same,AUC(0-t),"100 mg, QD, C1D1, read-out: AUC0–last, Median",460 ng·h/mL
same,Cmax,"100 mg, QD, C1D1, read-out: Cmax, Mean",141 ng/mL
same,Cmax,"100 mg, QD, C1D1, read-out: Cmax, Median",112 ng/mL
same,Tmax,"100 mg, QD, C1D1, read-out: Tmax, Mean",0.8 h
same,Tmax,"100 mg, QD, C1D1, read-out: Tmax, Median",0.9 h
same,AUC(0-t),"100 mg, QD, C1D21, read-out: AUC0–last, Mean",1800 ng·h/mL
same,AUC(0-t),"100 mg, QD, C1D21, read-out: AUC0–last, Median",1800 ng·h/mL
same,Cmax,"100 mg, QD, C1D21, read-out: Cmax, Mean",436 ng/mL
same,Cmax,"100 mg, QD, C1D21, read-out: Cmax, Median",436 ng/mL
same,Tmax,"100 mg, QD, C1D21, read-out: Tmax, Mean",1.9 h
same,Tmax,"100 mg, QD, C1D21, read-out: Tmax, Median",1.9 h
same,AUC,"110 mg, 110 mg BID, C1D1, mean, n=3, plasma, read-out: AUC0–12",639 ng·h/mL
same,AUC(0-t),"110 mg, 110 mg BID, C1D1, mean, n=3, plasma, read-out: AUC0–last",1170 ng·h/mL
same,Cmax,"110 mg, 110 mg BID, C1D1, mean, n=3, plasma, read-out: Cmax",95.2 ng/mL
same,Tmax,"110 mg, 110 mg BID, C1D1, mean, n=3, plasma, read-out: Tmax",3 h
same,AUC,"110 mg, 110 mg BID, C1D1, median, n=3, plasma, read-out: AUC0–12",593 ng·h/mL
same,AUC(0-t),"110 mg, 110 mg BID, C1D1, median, n=3, plasma, read-out: AUC0–last",1130 ng·h/mL
